In ChEMBL document CHEMBL5154832, “Design, Synthesis, and Proof-of-Concept of Triple-Site Inhibitors against Aminoacyl-tRNA Synthetases” (J Med Chem, 2022):
In brackets after ≈: the same amount, converted by molar mass.

Assays:
[1] = biological target: T1, Threonine--tRNA ligase (Salmonella enterica) (UniProt A0A3F3IEK2); test: Inhibition of recombinant salmonella enterica threonyl-tRNA synthetase assessed as reduction in enzyme activity at 10 uM incubated for 20 min by Kinase Glo luminescence assay relative to control
T1 sequence (whole entry): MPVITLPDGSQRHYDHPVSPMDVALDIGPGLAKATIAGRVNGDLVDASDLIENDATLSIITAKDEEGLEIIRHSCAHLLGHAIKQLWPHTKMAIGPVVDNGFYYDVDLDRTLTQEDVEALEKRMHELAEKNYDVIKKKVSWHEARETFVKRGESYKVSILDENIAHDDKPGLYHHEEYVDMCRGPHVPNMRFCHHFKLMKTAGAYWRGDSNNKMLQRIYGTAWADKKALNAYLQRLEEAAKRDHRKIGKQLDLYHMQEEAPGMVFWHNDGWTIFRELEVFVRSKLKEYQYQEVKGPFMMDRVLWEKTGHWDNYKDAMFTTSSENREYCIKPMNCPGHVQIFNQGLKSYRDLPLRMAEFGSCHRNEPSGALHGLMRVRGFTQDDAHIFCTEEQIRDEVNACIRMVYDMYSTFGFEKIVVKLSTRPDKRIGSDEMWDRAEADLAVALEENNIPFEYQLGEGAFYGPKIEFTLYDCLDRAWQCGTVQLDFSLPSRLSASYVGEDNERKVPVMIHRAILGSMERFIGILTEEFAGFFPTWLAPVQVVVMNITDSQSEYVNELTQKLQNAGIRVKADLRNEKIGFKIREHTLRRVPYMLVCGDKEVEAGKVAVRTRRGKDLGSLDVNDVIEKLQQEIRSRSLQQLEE

[2] = biological target: T1, Threonine--tRNA ligase (Salmonella enterica); test: Binding affinity to recombinant salmonella enterica threonyl-tRNA synthetase assessed as change in melting temperature at 0.1 mM by fluorescence-based thermal shift assay
Staphylococcus aureus [3] = test: Antibacterial activity against Staphylococcus aureus MRSA R3708 strain assessed as inhibition of bacterial growth incubated for 8 hrs by CLSI protocol based microdilution assay; assay type: functional
Enterococcus faecalis = test: Antibacterial activity against Enterococcus faecalis ATCC 29212 strain assessed as inhibition of bacterial growth incubated for 8 hrs by CLSI protocol based microdilution assay; assay type: functional
Salmonella enterica = test: Antibacterial activity against Salmonella enterica 87 strain assessed as inhibition of bacterial growth incubated for 8 hrs by CLSI protocol based microdilution assay; assay type: functional
Staphylococcus aureus [4] = test: Antibacterial activity against Staphylococcus aureus ATCC 29213 strain assessed as inhibition of bacterial growth incubated for 8 hrs by CLSI protocol based microdilution assay; assay type: functional
Pseudomonas aeruginosa = test: Antibacterial activity against Pseudomonas aeruginosa ATCC27853 strain assessed as inhibition of bacterial growth incubated for 8 hrs by CLSI protocol based microdilution assay; assay type: functional
Threonine--tRNA ligase = biological target: T2, Threonine--tRNA ligase (Salmonella enterica, UniProt A0A3F3IEK2); test: Inhibition of recombinant salmonella enterica threonyl-tRNA synthetase assessed as reduction in enzyme activity incubated for 20 min by Kinase Glo luminescence assay
T2 sequence (A0A3F3IEK2 whole entry): T1 sequence (whole entry)

Escherichia coli [5] = test: Antibacterial activity against Escherichia coli acraB strain assessed as inhibition of bacterial growth incubated for 8 hrs by CLSI protocol based microdilution assay; assay type: functional
Escherichia coli [6] = test: Antibacterial activity against Escherichia coli ATCC 25922 strain assessed as inhibition of bacterial growth incubated for 8 hrs by CLSI protocol based microdilution assay; assay type: functional

| Structure (SMILES) | inhibition [1] [%] | ΔTm [2] [°C] | MIC (Staphylococcus aureus [3]) [µg/mL] | MIC (Enterococcus faecalis) [µg/mL] | MIC (Salmonella enterica) [µg/mL] | MIC (Staphylococcus aureus [4]) [µg/mL] | MIC (Pseudomonas aeruginosa) [µg/mL] | IC50 (Threonine--tRNA ligase) [nM] | MIC (Escherichia coli [5]) [µg/mL] | MIC (Escherichia coli [6]) [µg/mL] |
| --- | --- | --- | --- | --- | --- | --- | --- | --- | --- | --- |
| C[C@@H](O)[C@@H](N)C(=O)N(CCCCCn1cnc2cc(Br)c(Cl)cc2c1=O)S(=O)(=O)c1cccc(-c2ccc3c(c2)CNC3=O)c1 | 16 | 6.2 |  |  |  |  |  |  |  |  |
| C[C@@H](O)[C@H](N)C(=O)N(CCC(=O)N1CCN(CCn2cnc3cc(Br)c(Cl)cc3c2=O)CC1)Cc1cccc(-c2ccc3c(c2)CNC3=O)c1 |  | 0 |  |  |  |  |  |  |  |  |
| C[C@@H](O)[C@H](N)C(=O)N[C@@H](CNC(=O)CCn1cnc2cc(Br)c(Cl)cc2c1=O)c1cccc(-c2ccc3c(N)ncnc3c2)c1 | > 99 | 35.2 | ≥ 128 | ≥ 128 | ≥ 128 | ≥ 128 | ≥ 128 | 480 | ≥ 128 | ≥ 128 |
| C[C@@H](O)[C@H](N)C(=O)N(CCCCOC(=O)Cn1cnc2cc(Br)c(Cl)cc2c1=O)Cc1cccc(-c2ccc3c(c2)CNC3=O)c1 |  | 0 |  |  |  |  |  |  |  |  |
| C[C@@H](O)[C@H](N)C(=O)N(CCCCCCn1cnc2cc(Br)c(Cl)cc2c1=O)Cc1cccc(-c2ccc3c(c2)CNC3=O)c1 | 75 | 23.5 | 64 (≈ 94 µM) | 64 (≈ 94 µM) | ≥ 128 | 64 (≈ 94 µM) | 64 (≈ 94 µM) | 5680 | 64 (≈ 94 µM) | ≥ 128 |
| C[C@@H](O)[C@H](N)C(=O)N(CCC(=O)NCCn1cnc2cc(Br)c(Cl)cc2c1=O)Cc1cccc(-c2ccc3c(c2)CNC3=O)c1 | 80 | 25.4 | ≥ 128 | 64 (≈ 92 µM) | ≥ 128 | ≥ 128 | 64 (≈ 92 µM) | 5070 | 64 (≈ 92 µM) | ≥ 128 |
| C[C@@H](O)[C@H](N)C(=O)N[C@@H](CNC(=O)CCn1cnc2cc(Br)c(Cl)cc2c1=O)c1cccc(-c2ccc3[nH]ccc3c2)c1 | 91 | 22.6 | 32 (≈ 48 µM) | 32 (≈ 48 µM) | ≥ 128 | 32 (≈ 48 µM) | 32 (≈ 48 µM) | 1620 | 16 (≈ 24 µM) | ≥ 128 |
| C[C@@H](O)[C@H](N)C(=O)N[C@@H](CNC(=O)CCn1cnc2cc(Br)c(Cl)cc2c1=O)c1cccc(-c2ccc3c(c2)CNC3=O)c1 | > 99 | 32.8 | ≥ 128 | ≥ 128 | ≥ 128 | ≥ 128 | ≥ 128 | 103 | ≥ 128 | ≥ 128 |
| C[C@@H](O)[C@H](N)C(=O)N[C@H](CNC(=O)CCn1cnc2cc(Br)c(Cl)cc2c1=O)c1cccc(-c2ccccc2)c1 | 8 | 7 |  |  |  |  |  |  |  |  |
| C[C@@H](O)[C@H](N)C(=O)N[C@H](CNC(=O)CCn1cnc2cc(Cl)c(Cl)cc2c1=O)c1cccc(-c2ccccc2)c1 |  | 5 |  |  |  |  |  |  |  |  |
| C[C@@H](O)[C@H](N)C(=O)N[C@@H](CNC(=O)CCn1cnc2cc(Cl)c(Cl)cc2c1=O)c1cccc(-c2ccc(C(F)(F)F)cc2)c1 | > 99 | 25.9 | 4 (≈ 6.15 µM) | 4 (≈ 6.15 µM) | ≥ 128 | 2 (≈ 3.07 µM) | 4 (≈ 6.15 µM) | 580 | 8 (≈ 12.3 µM) | ≥ 128 |
| C[C@@H](O)[C@H](N)C(=O)N[C@H](CNC(=O)CCn1cnc2cc(Br)c(Cl)cc2c1=O)c1cccc(-c2ccc3c(c2)CNC3=O)c1 | 86 | 17.9 |  |  |  |  |  | 1860 |  |  |
| C[C@@H](O)[C@H](N)C(=O)N[C@H](CNC(=O)CCn1cnc2cc(Br)c(Cl)cc2c1=O)c1cccc(-c2ccc3ccccc3c2)c1 |  | 4.8 |  |  |  |  |  |  |  |  |
| C[C@@H](O)[C@H](N)C(=O)N[C@H](CNC(=O)CCn1cnc2cc(Br)c(Cl)cc2c1=O)c1cccc(-c2ccc3c(N)ncnc3c2)c1 | 57 | 29.4 |  |  |  |  |  | 6630 |  |  |
| CN[C@H](C(=O)N[C@H](CNC(=O)CCn1cnc2cc(Cl)c(F)cc2c1=O)c1cccc(-c2ccccc2)c1)[C@@H](C)O | 5 | 7.2 |  |  |  |  |  |  |  |  |
| CC1(C)S[C@@H]2[C@H](NC(=O)[C@H](N)c3ccccc3)C(=O)N2[C@H]1C(=O)O [AMPICILLIN] |  |  |  |  | 1 (≈ 2.86 µM) |  | 1 (≈ 2.86 µM) |  | 1 (≈ 2.86 µM) | 1 (≈ 2.86 µM) |
| C[C@@H](O)[C@H](N)C(=O)N[C@@H](CNC(=O)CCn1cnc2cc(Cl)c(Cl)cc2c1=O)c1cccc(-c2ccc(Cl)cc2)c1 | 75 | 20.1 | 4 (≈ 6.48 µM) | 4 (≈ 6.48 µM) | ≥ 128 | 4 (≈ 6.48 µM) | 4 (≈ 6.48 µM) | 3290 | 8 (≈ 13 µM) | ≥ 128 |
| C[C@@H](O)[C@H](N)C(=O)NS(=O)(=O)c1cccc(-c2ccc3[nH]ncc3c2)c1 | > 99 | 29.9 | ≥ 128 | ≥ 128 | ≥ 128 | ≥ 128 | ≥ 128 | 190 | ≥ 128 | ≥ 128 |
| C[C@@H](O)[C@H](N)C(=O)N[C@@H](CNC(=O)CCn1cnc2cc(Br)c(Cl)cc2c1=O)c1cccc(-c2ccc3ccccc3c2)c1 | 85 | 20.2 | 4 (≈ 5.91 µM) | 4 (≈ 5.91 µM) | ≥ 128 | 4 (≈ 5.91 µM) | 4 (≈ 5.91 µM) | 2100 | 8 (≈ 11.8 µM) | ≥ 128 |
| C[C@@H](O)[C@H](N)C(=O)N[C@H](CNC(=O)CCn1cnc2cc(Cl)c(F)cc2c1=O)c1cccc(-c2ccccc2)c1 | 11 | 12.1 |  |  |  |  |  |  |  |  |
| C[C@@H](O)[C@H](N)C(=O)N(CCCOC(=O)Cn1cnc2cc(Br)c(Cl)cc2c1=O)Cc1cccc(-c2ccc3c(c2)CNC3=O)c1 |  | 0 |  |  |  |  |  |  |  |  |
| CN[C@H](CC(C)C)C(=O)N[C@H]1C(=O)N[C@@H](CC(N)=O)C(=O)N[C@H]2C(=O)N[C@H]3C(=O)N[C@H](C(=O)N[C@H](C(=O)O)c4cc(O)cc(O)c4-c4cc3ccc4O)[C@H](O)c3ccc(c(Cl)c3)Oc3cc2cc(c3O[C@@H]2O[C@H](CO)[C@@H](O)[C@H](O)[C@H]2O[C@H]2C[C@](C)(N)[C@H](O)[C@H](C)O2)Oc2ccc(cc2Cl)[C@H]1O [VANCOMYCIN] |  |  |  | 2 (≈ 1.38 µM) |  |  |  |  |  |  |
| C[C@@H](O)[C@H](N)C(=O)N[C@H](CNC(=O)CCn1cnc2cc(Br)c(Cl)cc2c1=O)c1cccc(-c2ccc3[nH]ncc3c2)c1 | 30 | 10.2 |  |  |  |  |  |  |  |  |
| C[C@@H](O)[C@H](N)C(=O)N[C@H](CNC(=O)CCn1cnc2cc(Br)c(Cl)cc2c1=O)c1cccc(-c2ccc3[nH]ccc3c2)c1 | 24 | 8.4 |  |  |  |  |  |  |  |  |
